These results are taken from PubChem BioAssay (NCI).

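Interpolation was linear, between the two tested concentrations surrounding the appropriate level; five concentrations were tested over 48 hours in 96-well plates. The concentration for 50% growth inhibition is given as GI50. TGI marks complete inhibition of growth.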 A value given as a limit tells only on which side of the number the result lay.

The first experiment relates to SNB-19 CNS. The experiment can be described thus: NCI-60 cell line screen, 48 h.
On to `Cc1cn(C2CC(N)C(CN)O2)c(=O)[nH]c1=O` (stereo not drawn), for which the TGI was above 100 µM.

Compound `Nc1nc2ncc(SCc3ccc(C(=O)NC(CCC(=O)O)C(=O)O)cc3)cc2c(=O)[nH]1` (stereo not drawn) came in with a TGI above 100 µM.

As to `CC(C)CC(N)C(=O)OCN1C(=O)C2C3C=CC(C2C1=O)C1C2C(=O)N(COC(=O)C(N)CC(C)C)C(=O)C2C31` (stereo not drawn), the TGI was above 100 µM.

`O=C1CC(O)c2c1csc2Br` (stereo not drawn) returned a TGI above 100 µM.

`CCCCCCCCCC[C@@H](O)[C@H]1CC[C@H]([C@H]2CC[C@H]([C@H](O)CCCCCCCCCC[C@@H]3CC(CC(C)=O)C(=O)O3)O2)O1` (stereo partly drawn): the GI50 was 1.08 µM and the TGI is above 50 µM.

Turning to `COC(=O)c1cc(CC(C)C)c2c(c1)[nH]c1ccccc12`, the TGI was above 100 µM.

`C[N+](C)(C)CC(=O)N/N=c1\cc(C(=O)Nc2ccc(N=O)cc2C#N)oc2cc(O)ccc12` returned a TGI above 100 µM.

The compound `OCC1CCCC(n2cnc3c(=S)nc[nH]c32)O1` (stereo not drawn) came in with a TGI above 100 µM.

In turn, `N#CCCN(c1ccc(C=Nc2cccc([N+](=O)[O-])c2)cc1)S(=O)(=O)c1ccccc1` displayed a TGI above 100 µM.

In turn, `COc1ccc(/C(=C/n2ccnc2)C(=O)c2ccc(OC)c(OC)c2)cc1` yielded a TGI above 100 µM.

Regarding `Clc1cc(N/N=C(/c2ccccc2)c2ncccn2)ncn1`, the TGI was above 100 µM.

With `O=C1CC2(C[C@@H]3CCCCCCCCC[C@@H](C3)C2)N1` (stereo partly drawn), the TGI turned out to be 34.6 µM.

Regarding `CCCN=C1CC(C)Nc2ccccc2N1` (stereo not drawn), the TGI was above 100 µM.

In turn, `CC(C)C(Sc1nc(-c2ccccc2)c(-c2ccccc2)[nH]1)C(=O)NNC(=S)Nc1ccccc1` (stereo not drawn) returned a TGI of 58.6 µM.

As to `COC1O[C@H]2CCN(C(=O)OCc3ccccc3)[C@H]2[C@H]1OCc1ccccc1` (stereo partly drawn), the TGI is above 100 µM.

In turn, `CC(C)(C)OC(=O)NC(C)(C)C(=O)NCCC(=O)O` had a TGI above 100 µM.

`CC12CC(c3ccccc3O1)C(C(=O)Nc1ccc(F)cc1)C(=O)N2` (stereo not drawn): the TGI is above 100 µM.

`COc1ccc(C2C(Cl)C(=O)N2NC(=O)c2ccc(NC(C)=O)cc2)cc1` (stereo not drawn): the TGI is above 100 µM.

With `Cc1c(Cl)cccc1NC(=O)C(=O)C1C(=O)CC(C)(C)CC1=O`, the TGI was above 100 µM.

`COc1ccc2nc(-c3ccc(OCc4ccccc4)cc3)ccc2c1` registered a TGI above 100 µM.

Compound `N#C/C(=C\NC(=S)Nc1ccc(S(=O)(=O)Nc2ccccn2)cc1)C(N)=O` gave a TGI above 100 µM.

The compound `COC1(C)CC2N(C(=O)c3ccccc3)N=C(c3ccccc3)CC2(C)O1` (stereo not drawn) yielded a TGI above 100 µM.

Turning to `O=c1oc2ccccc2c(O)c1C(c1cc(OCc2ccccc2)cc(OCc2ccccc2)c1)c1c(O)c2ccccc2oc1=O`, the TGI is 17.9 µM.

`Nc1ccccc1Nc1ccccc1C(=O)[O-].Nc1ccccc1Nc1ccccc1C(=O)[O-].[Cu+2]` gave a TGI above 100 µM.

In turn, `Cc1cc(-c2nc3ccccc3s2)ccc1NS(=O)(=O)O` displayed a TGI above 100 µM.

`CCOC(=O)C(OCC1CC=CCC1)Sc1ccccc1` (stereo not drawn) showed a TGI above 100 µM.

`COc1cc(COC(=O)N[C@H](C(=O)O)C(C)(C)C)c([N+](=O)[O-])cc1OC` registered a TGI above 100 µM.

With `Cc1c(/C=N\NC(=S)N2CCN(C(=S)N/N=C\c3c(C)n(C)n(-c4ccccc4)c3=O)CC2)c(=O)n(-c2ccccc2)n1C`, the TGI was above 100 µM.

`Cc1cc2c(c(C(=O)NCCC(=O)O)c1)Oc1c(cc(C)cc1C(=O)NCCC(=O)O)S2`: the TGI is above 100 µM.

Another experiment concerns SW-620 colon. Kind of experiment: NCI-60 cell line screen, 48 h.
As for `Cc1cn(C2CC(N)C(CN)O2)c(=O)[nH]c1=O` (stereo not drawn), the TGI is above 100 µM.

Turning to `Nc1nc2ncc(SCc3ccc(C(=O)NC(CCC(=O)O)C(=O)O)cc3)cc2c(=O)[nH]1` (stereo not drawn), the TGI is above 100 µM.

The compound `CC(C)CC(N)C(=O)OCN1C(=O)C2C3C=CC(C2C1=O)C1C2C(=O)N(COC(=O)C(N)CC(C)C)C(=O)C2C31` (stereo not drawn) returned a TGI above 75.6 µM.

In turn, `O=C1CC(O)c2c1csc2Br` (stereo not drawn) registered a TGI of 37.2 µM.

In the case of `CCCCCCCCCC[C@@H](O)[C@H]1CC[C@H]([C@H]2CC[C@H]([C@H](O)CCCCCCCCCC[C@@H]3CC(CC(C)=O)C(=O)O3)O2)O1` (stereo partly drawn), the GI50 was 5.19 µM and the TGI was above 50 µM.

In the case of `COC(=O)c1cc(CC(C)C)c2c(c1)[nH]c1ccccc12`, the TGI was above 100 µM.

In turn, `C[N+](C)(C)CC(=O)N/N=c1\cc(C(=O)Nc2ccc(N=O)cc2C#N)oc2cc(O)ccc12` gave a TGI above 100 µM.

Take `OCC1CCCC(n2cnc3c(=S)nc[nH]c32)O1` (stereo not drawn): the TGI was above 100 µM.

`N#CCCN(c1ccc(C=Nc2cccc([N+](=O)[O-])c2)cc1)S(=O)(=O)c1ccccc1` registered a TGI above 100 µM.

In the case of `COc1ccc(/C(=C/n2ccnc2)C(=O)c2ccc(OC)c(OC)c2)cc1`, the TGI is above 100 µM.

Compound `Clc1cc(N/N=C(/c2ccccc2)c2ncccn2)ncn1` displayed a TGI above 100 µM.

For `O=C1CC2(C[C@@H]3CCCCCCCCC[C@@H](C3)C2)N1` (stereo partly drawn), the TGI came out at 33.8 µM.

`CCCN=C1CC(C)Nc2ccccc2N1` (stereo not drawn) gave a TGI above 100 µM.

The compound `CC(C)C(Sc1nc(-c2ccccc2)c(-c2ccccc2)[nH]1)C(=O)NNC(=S)Nc1ccccc1` (stereo not drawn) returned a TGI of 33.1 µM.

Regarding `COC1O[C@H]2CCN(C(=O)OCc3ccccc3)[C@H]2[C@H]1OCc1ccccc1` (stereo partly drawn), the TGI was above 100 µM.

In the case of `CC(C)(C)OC(=O)NC(C)(C)C(=O)NCCC(=O)O`, the TGI was above 100 µM.

`CC12CC(c3ccccc3O1)C(C(=O)Nc1ccc(F)cc1)C(=O)N2` (stereo not drawn) returned a TGI above 100 µM.

In turn, `COc1ccc(C2C(Cl)C(=O)N2NC(=O)c2ccc(NC(C)=O)cc2)cc1` (stereo not drawn) showed a TGI above 100 µM.

In turn, `Cc1c(Cl)cccc1NC(=O)C(=O)C1C(=O)CC(C)(C)CC1=O` registered a TGI above 100 µM.

`O=C1O[C@@H](c2ccccc2)C[C@@H]1CN1CCOCC1`: the TGI was above 100 µM.

With `COc1ccc2nc(-c3ccc(OCc4ccccc4)cc3)ccc2c1`, the TGI was above 100 µM.

Compound `N#C/C(=C\NC(=S)Nc1ccc(S(=O)(=O)Nc2ccccn2)cc1)C(N)=O` returned a TGI above 100 µM.

As to `COC1(C)CC2N(C(=O)c3ccccc3)N=C(c3ccccc3)CC2(C)O1` (stereo not drawn), the TGI was above 100 µM.

Turning to `O=c1oc2ccccc2c(O)c1C(c1cc(OCc2ccccc2)cc(OCc2ccccc2)c1)c1c(O)c2ccccc2oc1=O`, the TGI is above 43.8 µM.

As for `Nc1ccccc1Nc1ccccc1C(=O)[O-].Nc1ccccc1Nc1ccccc1C(=O)[O-].[Cu+2]`, the TGI was above 100 µM.

`Cc1cc(-c2nc3ccccc3s2)ccc1NS(=O)(=O)O` registered a TGI above 100 µM.

`CCOC(=O)C(OCC1CC=CCC1)Sc1ccccc1` (stereo not drawn) came in with a TGI above 100 µM.

`COc1cc(COC(=O)N[C@H](C(=O)O)C(C)(C)C)c([N+](=O)[O-])cc1OC` yielded a TGI above 100 µM.

For `Cc1c(/C=N\NC(=S)N2CCN(C(=S)N/N=C\c3c(C)n(C)n(-c4ccccc4)c3=O)CC2)c(=O)n(-c2ccccc2)n1C`, the TGI was above 100 µM.

Compound `Cc1cc2c(c(C(=O)NCCC(=O)O)c1)Oc1c(cc(C)cc1C(=O)NCCC(=O)O)S2` came in with a TGI above 100 µM.

The next experiment relates to A498 renal. The experiment can be described thus: NCI-60 cell line screen, 48 h.
In turn, `Cc1cn(C2CC(N)C(CN)O2)c(=O)[nH]c1=O` (stereo not drawn) displayed a TGI above 100 µM.

For the compound `Nc1nc2ncc(SCc3ccc(C(=O)NC(CCC(=O)O)C(=O)O)cc3)cc2c(=O)[nH]1` (stereo not drawn), the TGI is above 100 µM.
